Test systems include MCF7 breast; MOLT-4 leukemia; ACHN renal; UACC-62 melanoma; T-47D breast; M14 melanoma; HOP-62 NSCLC; SF-295 CNS; HT29 colon; EKVX NSCLC; RPMI-8226 leukemia; UO-31 renal; PC-3 prostate; HCC-2998 colon; SK-OV-3 ovarian; SNB-19 CNS; BT-549 breast; SF-268 CNS; NCI-H226 lung.
Holding throughout (experiment): inhibition of tumour cell growth, NCI panel, 48 h

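1) Cells in 96-well plates. 2) Compound, 48 h, 5 concentrations. 3) Linear interpolation between surrounding doses. 4) Unreached endpoint = highest concentration. TGI marks complete inhibition of growth.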

On to `CCCCCCCCCCCCCCCCCCNC(=O)C(N)Cc1ccc(OCc2ccccc2)cn1` (stereo not drawn), for which the TGI in the test with MCF7 breast was 35.8 µM; with MOLT-4 leukemia, 55 µM; in the test with ACHN renal it was 56.4 µM; with UACC-62 melanoma, 32.2 µM; with T-47D breast it was 50.7 µM; in the test with M14 melanoma it was 33.3 µM. Moreover, the TGI in the test with HOP-62 NSCLC was 40 µM; in the test with SF-295 CNS, 59.1 µM; in the test on HT29 colon, 31.2 µM; in the test on EKVX NSCLC, 46.8 µM; in the test with RPMI-8226 leukemia, 80.6 µM; in the test on UO-31 renal, 32.5 µM. The TGI in the test on PC-3 prostate came to 27.7 µM; in the test with HCC-2998 colon, 24.2 µM; in the test on SK-OV-3 ovarian, 40.2 µM; in the test on SNB-19 CNS, 42.5 µM; with BT-549 breast it was 57.3 µM; in the test on SF-268 CNS, 43.4 µM.
Consider `O=[N+]([O-])/C(C(Cl)=C(Cl)Cl)=C(\N1CCOCC1)n1nnc2ccccc21`, for which the TGI with MCF7 breast is 56.1 µM; in the test with MOLT-4 leukemia, 72.3 µM; in the test on ACHN renal, 34.9 µM; with NCI-H226 lung, 58.7 µM; with UACC-62 melanoma it was 46.7 µM; with T-47D breast, 56.8 µM. Moreover, the TGI with M14 melanoma is 33.4 µM; in the test on HOP-62 NSCLC it was 36.2 µM; in the test on SF-295 CNS, 34.9 µM; with EKVX NSCLC, 35.2 µM; in the test with RPMI-8226 leukemia, above 100 µM; in the test on UO-31 renal, 33 µM. For the same compound, the TGI in the test on PC-3 prostate came out at 30.8 µM; with SK-OV-3 ovarian, 79.2 µM; with SNB-19 CNS, 33.7 µM; with BT-549 breast, 33.1 µM; in the test with SF-268 CNS, 40 µM.
On to `Cc1ccc(S(=O)(=O)n2cc(-c3cc(C(F)(F)F)ccn3)c3cc(Br)ccc32)cc1`, for which the TGI in the test on MCF7 breast was 26 µM; in the test on MOLT-4 leukemia it was above 100 µM; with ACHN renal, 24.3 µM; in the test with NCI-H226 lung it was 57 µM; with UACC-62 melanoma, 33.3 µM; with T-47D breast it was 18.9 µM. For the same compound, the TGI was above 100 µM with M14 melanoma; 29.5 µM with HOP-62 NSCLC; 67.7 µM with SF-295 CNS; above 100 µM in the test with HT29 colon; above 100 µM in the test on EKVX NSCLC; above 100 µM in the test with RPMI-8226 leukemia. Further, the TGI in the test with UO-31 renal was determined as 24.7 µM; with PC-3 prostate, 41.7 µM; in the test with HCC-2998 colon it was 62.6 µM; with SK-OV-3 ovarian it was 35.1 µM; in the test with SNB-19 CNS, 37.5 µM; in the test on SF-268 CNS it was 93.9 µM.
`O=C1CCCCC/C1=C\c1cccc(Cl)c1`: the TGI in the test with MOLT-4 leukemia, with ACHN renal, in the test with NCI-H226 lung, in the test on UACC-62 melanoma, in the test on T-47D breast and with M14 melanoma was above 100 µM throughout. Besides, the TGI in the test on HOP-62 NSCLC was above 100 µM; in the test with SF-295 CNS, 50.2 µM; with HT29 colon, above 100 µM; in the test with EKVX NSCLC, above 100 µM; in the test with RPMI-8226 leukemia it was above 100 µM; in the test with UO-31 renal, above 100 µM. For the same compound, the TGI is 80.4 µM in the test on PC-3 prostate; above 100 µM with HCC-2998 colon; above 100 µM in the test with SK-OV-3 ovarian; above 100 µM in the test on SNB-19 CNS; above 100 µM in the test on BT-549 breast; 68.2 µM in the test on SF-268 CNS.
On to `COCCOC(=O)c1c(C)n([O-])c2cc(Cl)c(Cl)cc2[n+]1=O`, for which the TGI with MCF7 breast is above 100 µM; in the test on MOLT-4 leukemia, 62.5 µM; in the test with ACHN renal it was 29.3 µM; in the test with UACC-62 melanoma, 36.4 µM; with T-47D breast it was 61.2 µM; in the test on M14 melanoma, 41.9 µM. The TGI is 35 µM in the test with HOP-62 NSCLC; 84.2 µM with SF-295 CNS; 41.8 µM in the test on HT29 colon; 36.8 µM in the test on EKVX NSCLC; 18.8 µM in the test with RPMI-8226 leukemia; 10.5 µM with UO-31 renal. Also, the TGI was above 100 µM in the test on PC-3 prostate; 47.5 µM in the test on SK-OV-3 ovarian; above 100 µM in the test with SNB-19 CNS; 67.1 µM in the test on BT-549 breast; 59.1 µM with SF-268 CNS.
Turning to `CSc1nc(C#N)c(/N=C\N(C)C)n1C`, the TGI in the test on MOLT-4 leukemia, in the test with ACHN renal, in the test on NCI-H226 lung, with UACC-62 melanoma, with T-47D breast and with M14 melanoma was above 100 µM in each case. Moreover, the TGI with HOP-62 NSCLC, in the test on SF-295 CNS, in the test with EKVX NSCLC, in the test with RPMI-8226 leukemia, in the test on UO-31 renal and in the test with PC-3 prostate was above 100 µM each time. Further, the TGI in the test on SK-OV-3 ovarian, with SNB-19 CNS, with BT-549 breast and in the test on SF-268 CNS was above 100 µM throughout.
On to `Cc1nc2ccccc2n1COC(Cn1ccnc1)c1ccc(Cl)cc1Cl` (stereo not drawn), for which the TGI in the test on MCF7 breast, with MOLT-4 leukemia, in the test with ACHN renal, with UACC-62 melanoma, in the test with T-47D breast and with M14 melanoma was above 100 µM throughout. Also, the TGI in the test with HOP-62 NSCLC, in the test on SF-295 CNS, with HT29 colon, with EKVX NSCLC, in the test with RPMI-8226 leukemia and with UO-31 renal was above 100 µM in each case. The TGI was above 100 µM in the test on PC-3 prostate; above 100 µM in the test on HCC-2998 colon; above 100 µM in the test on SNB-19 CNS; 91.2 µM in the test with BT-549 breast; above 100 µM in the test with SF-268 CNS.
As for `O=C(O)c1nc2cc(C(F)(F)F)ccc2nc1Nc1ccc(F)cc1`, the TGI in the test with MCF7 breast is 72.9 µM; in the test on MOLT-4 leukemia, 59.8 µM; in the test with ACHN renal, 35.2 µM; with NCI-H226 lung, above 100 µM; with UACC-62 melanoma, 31.1 µM; in the test on T-47D breast it was above 100 µM. The TGI is 82.4 µM in the test on M14 melanoma; 58.4 µM with SF-295 CNS; above 100 µM in the test on HT29 colon; 89.6 µM in the test on EKVX NSCLC; above 100 µM in the test on RPMI-8226 leukemia; 35.8 µM in the test on UO-31 renal. In addition, the TGI is 31.6 µM with PC-3 prostate; above 100 µM with SK-OV-3 ovarian; above 100 µM in the test on SNB-19 CNS; 46.9 µM with BT-549 breast; above 100 µM with SF-268 CNS.

The record behind these values is PubChem BioAssay (NCI).
